According to publication PMC7265341, “Quantifying CDK inhibitor selectivity in live cells” (Nature Communications, 2020):
pIC50: −log10 of the molar value. Read-outs that look alike come from different tables or passages of the source.

How the values were obtained:
CDK1/Cyclin E1 = CDK1/Cyclin E1 (Homo sapiens, UniProt P06493); assay: NanoBRET live-cell target engagement, CDK1-NanoLuc/Cyclin E1 in HEK-293; format: binding; details: for inhibition at 10 µM: read-out: CDK1/E1 Inhibition at 10µM (%); for pIC50: read-out: CDK1/E1 IC50
CDK4/Cyclin D1 = CDK4/Cyclin D1 (Homo sapiens, UniProt P11802); assay: NanoBRET live-cell target engagement, NanoLuc-CDK4/Cyclin D1 in HEK-293; format: binding; details: for inhibition at 10 µM: read-out: CDK4/D1 Inhibition at 10µM (%); for pIC50: read-out: CDK4/D1 IC50
CDK5/CDK5R1 = CDK5/CDK5R1 (Homo sapiens, UniProt Q00535); assay: NanoBRET live-cell target engagement, CDK5-NanoLuc/CDK5R1 in HEK-293; format: binding; details: for inhibition at 10 µM: read-out: CDK5/CDK5R1 Inhibition at 10µM (%); for pIC50: read-out: CDK5/CDK5R1 IC50
CDK6/Cyclin D1 = CDK6/Cyclin D1 (Homo sapiens, UniProt Q00534); assay: NanoBRET live-cell target engagement, NanoLuc-CDK6/Cyclin D1 in HEK-293; format: binding; details: for inhibition at 10 µM: read-out: CDK6/D1 Inhibition at 10µM (%); for pIC50: read-out: CDK6/D1 IC50
CDK7 = CDK7 (Homo sapiens, UniProt P50613); assay: NanoBRET live-cell target engagement, NanoLuc-CDK7 in HEK-293; format: binding; details: for inhibition at 10 µM: read-out: CDK7 Inhibition at 10µM (%)
CDK8/Cyclin C = CDK8/Cyclin C (Homo sapiens, UniProt P49336); assay: NanoBRET live-cell target engagement, NanoLuc-CDK8/Cyclin C in HEK-293; format: binding; details: 10µM, read-out: CDK8/C Inhibition at 10µM (%)
CDK9/Cyclin K = CDK9/Cyclin K (Homo sapiens, UniProt P50750); assay: NanoBRET live-cell target engagement, NanoLuc-CDK9/Cyclin K in HEK-293; format: binding; details: 10µM, read-out: CDK9/K Inhibition at 10µM (%)
CDK11A/Cyclin L2 = target: T1, CDK11A/Cyclin L2 (Homo sapiens, UniProt Q9UQ88); assay: NanoBRET live-cell target engagement, CDK11A-NanoLuc/Cyclin L2 in HEK-293; format: binding; details: 10µM, read-out: CDK11a/L2 Inhibition at 10µM (%)
T1 sequence (Q9UQ88 1-783): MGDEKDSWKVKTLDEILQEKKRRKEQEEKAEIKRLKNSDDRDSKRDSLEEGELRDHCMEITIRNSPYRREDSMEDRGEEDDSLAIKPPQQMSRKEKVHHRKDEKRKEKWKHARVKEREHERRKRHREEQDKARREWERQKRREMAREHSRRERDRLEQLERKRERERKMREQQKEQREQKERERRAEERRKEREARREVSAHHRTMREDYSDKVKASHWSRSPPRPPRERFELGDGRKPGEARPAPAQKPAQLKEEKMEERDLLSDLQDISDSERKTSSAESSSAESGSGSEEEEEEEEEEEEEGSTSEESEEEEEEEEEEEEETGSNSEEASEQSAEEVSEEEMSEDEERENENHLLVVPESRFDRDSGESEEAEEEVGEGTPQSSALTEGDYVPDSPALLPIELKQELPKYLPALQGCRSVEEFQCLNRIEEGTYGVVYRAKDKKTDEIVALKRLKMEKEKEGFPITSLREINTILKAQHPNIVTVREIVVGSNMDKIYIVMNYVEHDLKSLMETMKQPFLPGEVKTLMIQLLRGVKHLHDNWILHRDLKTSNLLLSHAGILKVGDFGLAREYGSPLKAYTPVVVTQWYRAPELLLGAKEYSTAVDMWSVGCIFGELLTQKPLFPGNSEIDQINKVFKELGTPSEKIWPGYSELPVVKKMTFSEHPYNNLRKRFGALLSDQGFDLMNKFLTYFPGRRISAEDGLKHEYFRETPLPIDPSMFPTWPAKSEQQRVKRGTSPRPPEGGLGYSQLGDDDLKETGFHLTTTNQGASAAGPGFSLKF

CDK11B/Cyclin L2 = CDK11B/Cyclin L2 (Homo sapiens, UniProt P21127); assay: NanoBRET live-cell target engagement, CDK11B-NanoLuc/Cyclin L2 in HEK-293; format: binding; details: 10µM, read-out: CDK11b/L2 Inhibition at 10µM (%)
CDK12/Cyclin K = CDK12/Cyclin K (Homo sapiens, UniProt Q9NYV4); assay: NanoBRET live-cell target engagement, CDK12-NanoLuc/Cyclin K in HEK-293; format: binding; details: 10µM, read-out: CDK12/K Inhibition at 10µM (%)
CDK13/Cyclin K = CDK13/Cyclin K (Homo sapiens, UniProt Q14004); assay: NanoBRET live-cell target engagement, CDK13-NanoLuc/Cyclin K in HEK-293; format: binding; details: 10µM, read-out: CDK13/K Inhibition at 10µM (%)
CDK14/Cyclin Y = CDK14/Cyclin Y (Homo sapiens, UniProt O94921); assay: NanoBRET live-cell target engagement, CDK14-NanoLuc/Cyclin Y in HEK-293; format: binding; details: 10µM, read-out: CDK14/Y Inhibition at 10µM (%)
CDK15/Cyclin Y = CDK15/Cyclin Y (Homo sapiens, UniProt Q96Q40); assay: NanoBRET live-cell target engagement, NanoLuc-CDK15/Cyclin Y in HEK-293; format: binding; details: 10µM, read-out: CDK15/Y Inhibition at 10µM (%)
CDK16/Cyclin Y = CDK16/Cyclin Y (Homo sapiens, UniProt Q00536); assay: NanoBRET live-cell target engagement, CDK16-NanoLuc/Cyclin Y in HEK-293; format: binding; details: 10µM, read-out: CDK16/Y Inhibition at 10µM (%)
CDK17/Cyclin Y = CDK17/Cyclin Y (Homo sapiens, UniProt Q00537); assay: NanoBRET live-cell target engagement, CDK17-NanoLuc/Cyclin Y in HEK-293; format: binding; details: 10µM, read-out: CDK17/Y Inhibition at 10µM (%)
CDK18/Cyclin Y = CDK18/Cyclin Y (Homo sapiens, UniProt Q07002); assay: NanoBRET live-cell target engagement, CDK18-NanoLuc/Cyclin Y in HEK-293; format: binding; details: 10µM, read-out: CDK18/Y Inhibition at 10µM (%)
CDK20/Cyclin H = CDK20/Cyclin H (Homo sapiens, UniProt Q8IZL9); assay: NanoBRET live-cell target engagement, NanoLuc-CDK20/Cyclin H in HEK-293; format: binding; details: 10µM, read-out: CDK20/H Inhibition at 10µM (%)
CDK19/Cyclin C = CDK19/Cyclin C (Homo sapiens, UniProt Q9BWU1); assay: NanoBRET live-cell target engagement, NanoLuc-CDK19/Cyclin C in HEK-293; details: read-out: CDK19/C Inhibition at 10µM (%), 10µM
CDK10/Cyclin L2 = CDK10/Cyclin L2 (Homo sapiens, UniProt Q15131); assay: NanoBRET live-cell target engagement, CDK10-NanoLuc/Cyclin L2 in HEK-293; details: read-out: CDK10/L2 Inhibition at 10µM (%), 10µM

Chain of CDK12/Cyclin K (Q9NYV4 1-1481 isoform Q9NYV4-2): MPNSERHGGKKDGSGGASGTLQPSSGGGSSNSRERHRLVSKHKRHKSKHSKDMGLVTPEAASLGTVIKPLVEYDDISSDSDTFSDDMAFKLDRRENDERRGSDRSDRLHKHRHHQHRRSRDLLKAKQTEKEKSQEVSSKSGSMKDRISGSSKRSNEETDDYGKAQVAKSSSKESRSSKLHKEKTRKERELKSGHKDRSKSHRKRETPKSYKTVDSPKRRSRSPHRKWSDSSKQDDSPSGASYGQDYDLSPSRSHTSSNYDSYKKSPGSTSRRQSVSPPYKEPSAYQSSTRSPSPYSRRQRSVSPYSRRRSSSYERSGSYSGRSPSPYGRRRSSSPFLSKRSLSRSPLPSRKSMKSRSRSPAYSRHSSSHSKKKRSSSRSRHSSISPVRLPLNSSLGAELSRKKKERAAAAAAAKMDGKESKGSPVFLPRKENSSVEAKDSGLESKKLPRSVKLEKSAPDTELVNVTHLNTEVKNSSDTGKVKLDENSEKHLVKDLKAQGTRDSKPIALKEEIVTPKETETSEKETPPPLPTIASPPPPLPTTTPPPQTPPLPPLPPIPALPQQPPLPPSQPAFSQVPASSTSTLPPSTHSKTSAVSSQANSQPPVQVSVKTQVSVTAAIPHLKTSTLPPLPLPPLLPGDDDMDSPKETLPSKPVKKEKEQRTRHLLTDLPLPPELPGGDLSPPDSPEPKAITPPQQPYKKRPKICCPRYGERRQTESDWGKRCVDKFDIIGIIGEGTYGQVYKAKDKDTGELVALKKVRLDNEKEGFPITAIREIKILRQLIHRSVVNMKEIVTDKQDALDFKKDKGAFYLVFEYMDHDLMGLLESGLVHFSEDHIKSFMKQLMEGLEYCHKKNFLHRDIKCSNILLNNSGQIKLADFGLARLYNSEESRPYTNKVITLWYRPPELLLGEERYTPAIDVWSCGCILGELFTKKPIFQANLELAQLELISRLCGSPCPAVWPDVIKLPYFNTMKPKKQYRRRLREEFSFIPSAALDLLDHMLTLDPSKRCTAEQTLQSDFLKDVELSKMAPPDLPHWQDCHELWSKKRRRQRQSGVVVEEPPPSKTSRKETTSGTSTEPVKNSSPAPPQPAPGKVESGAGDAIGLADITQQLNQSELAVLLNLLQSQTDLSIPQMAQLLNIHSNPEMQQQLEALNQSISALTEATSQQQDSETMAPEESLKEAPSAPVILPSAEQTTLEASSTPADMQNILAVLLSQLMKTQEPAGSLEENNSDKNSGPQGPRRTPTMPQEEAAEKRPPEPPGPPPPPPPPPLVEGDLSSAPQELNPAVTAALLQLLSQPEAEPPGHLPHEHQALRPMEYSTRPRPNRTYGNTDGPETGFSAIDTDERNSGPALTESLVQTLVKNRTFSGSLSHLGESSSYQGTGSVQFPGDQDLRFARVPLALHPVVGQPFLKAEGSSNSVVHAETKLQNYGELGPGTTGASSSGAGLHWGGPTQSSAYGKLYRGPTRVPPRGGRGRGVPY
Chain of CDK12/Cyclin K (O75909 whole entry partner): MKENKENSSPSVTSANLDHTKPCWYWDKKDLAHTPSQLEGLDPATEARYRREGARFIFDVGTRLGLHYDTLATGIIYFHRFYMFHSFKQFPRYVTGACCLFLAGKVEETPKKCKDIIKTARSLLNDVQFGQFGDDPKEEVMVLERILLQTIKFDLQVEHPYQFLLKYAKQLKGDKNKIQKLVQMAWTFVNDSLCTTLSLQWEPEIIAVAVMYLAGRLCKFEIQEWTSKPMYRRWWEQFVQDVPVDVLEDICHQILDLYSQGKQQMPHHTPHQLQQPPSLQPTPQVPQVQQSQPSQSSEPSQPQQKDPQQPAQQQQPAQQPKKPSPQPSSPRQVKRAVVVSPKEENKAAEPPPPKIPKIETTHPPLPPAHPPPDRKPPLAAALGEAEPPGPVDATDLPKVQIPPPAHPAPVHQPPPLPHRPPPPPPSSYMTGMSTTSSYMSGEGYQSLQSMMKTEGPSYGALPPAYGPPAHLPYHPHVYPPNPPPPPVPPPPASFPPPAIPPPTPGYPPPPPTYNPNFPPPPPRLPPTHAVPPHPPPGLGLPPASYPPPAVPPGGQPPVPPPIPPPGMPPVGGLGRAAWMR
Chain of CDK19/Cyclin C (Q9BWU1 whole entry): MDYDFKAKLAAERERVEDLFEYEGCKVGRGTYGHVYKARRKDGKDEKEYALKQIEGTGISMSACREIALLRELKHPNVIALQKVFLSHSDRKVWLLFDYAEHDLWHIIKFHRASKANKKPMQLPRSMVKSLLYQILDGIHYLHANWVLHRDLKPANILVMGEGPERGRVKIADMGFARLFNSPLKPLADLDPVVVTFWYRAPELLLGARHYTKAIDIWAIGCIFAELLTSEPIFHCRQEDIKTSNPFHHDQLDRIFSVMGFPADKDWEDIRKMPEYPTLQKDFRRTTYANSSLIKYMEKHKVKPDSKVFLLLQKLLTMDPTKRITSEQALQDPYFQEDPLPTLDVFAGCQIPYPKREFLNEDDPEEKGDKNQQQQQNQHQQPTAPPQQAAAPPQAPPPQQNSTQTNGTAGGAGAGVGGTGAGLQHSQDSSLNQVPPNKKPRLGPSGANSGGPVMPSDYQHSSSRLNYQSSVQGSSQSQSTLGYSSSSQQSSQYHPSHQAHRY
Chain of CDK19/Cyclin C (P24863 whole entry partner): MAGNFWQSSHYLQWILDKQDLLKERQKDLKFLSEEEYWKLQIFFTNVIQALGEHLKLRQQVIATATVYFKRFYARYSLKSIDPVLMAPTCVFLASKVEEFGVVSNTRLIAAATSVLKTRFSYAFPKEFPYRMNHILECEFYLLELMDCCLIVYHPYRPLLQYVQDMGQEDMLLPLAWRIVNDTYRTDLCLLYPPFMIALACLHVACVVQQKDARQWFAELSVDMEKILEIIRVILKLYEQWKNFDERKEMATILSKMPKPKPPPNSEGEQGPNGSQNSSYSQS
Chain of CDK11B/Cyclin L2 (P21127 1-782 isoform P21127-2): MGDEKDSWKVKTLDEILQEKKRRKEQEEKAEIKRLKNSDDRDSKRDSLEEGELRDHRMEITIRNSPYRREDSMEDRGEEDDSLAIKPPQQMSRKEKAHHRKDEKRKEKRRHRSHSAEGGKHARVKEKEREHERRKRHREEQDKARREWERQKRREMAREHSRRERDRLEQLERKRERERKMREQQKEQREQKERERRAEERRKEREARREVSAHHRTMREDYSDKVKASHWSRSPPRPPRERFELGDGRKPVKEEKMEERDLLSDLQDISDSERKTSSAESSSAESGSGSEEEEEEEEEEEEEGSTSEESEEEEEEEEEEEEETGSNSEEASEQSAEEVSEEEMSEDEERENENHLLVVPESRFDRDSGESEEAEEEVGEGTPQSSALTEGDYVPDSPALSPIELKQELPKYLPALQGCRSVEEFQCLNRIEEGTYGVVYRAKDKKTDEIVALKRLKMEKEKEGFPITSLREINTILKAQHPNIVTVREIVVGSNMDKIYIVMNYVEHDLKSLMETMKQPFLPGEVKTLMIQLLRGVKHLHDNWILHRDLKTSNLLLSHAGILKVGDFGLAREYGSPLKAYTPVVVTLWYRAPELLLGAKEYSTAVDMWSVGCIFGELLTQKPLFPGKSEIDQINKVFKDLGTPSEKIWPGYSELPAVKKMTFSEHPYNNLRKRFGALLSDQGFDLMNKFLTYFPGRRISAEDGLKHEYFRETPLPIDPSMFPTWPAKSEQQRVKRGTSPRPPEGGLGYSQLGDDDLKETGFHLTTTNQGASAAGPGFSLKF
Chain of CDK1/Cyclin E1 (P06493 whole entry): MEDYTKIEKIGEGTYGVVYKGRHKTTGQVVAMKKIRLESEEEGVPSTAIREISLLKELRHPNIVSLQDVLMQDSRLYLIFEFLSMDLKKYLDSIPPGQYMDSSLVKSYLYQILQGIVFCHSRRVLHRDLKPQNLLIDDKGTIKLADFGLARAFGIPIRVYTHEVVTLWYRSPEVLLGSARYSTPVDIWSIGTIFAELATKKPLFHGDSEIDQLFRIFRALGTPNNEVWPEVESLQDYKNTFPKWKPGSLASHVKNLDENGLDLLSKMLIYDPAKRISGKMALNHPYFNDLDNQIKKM
Chain of CDK1/Cyclin E1 (P24864 whole entry partner): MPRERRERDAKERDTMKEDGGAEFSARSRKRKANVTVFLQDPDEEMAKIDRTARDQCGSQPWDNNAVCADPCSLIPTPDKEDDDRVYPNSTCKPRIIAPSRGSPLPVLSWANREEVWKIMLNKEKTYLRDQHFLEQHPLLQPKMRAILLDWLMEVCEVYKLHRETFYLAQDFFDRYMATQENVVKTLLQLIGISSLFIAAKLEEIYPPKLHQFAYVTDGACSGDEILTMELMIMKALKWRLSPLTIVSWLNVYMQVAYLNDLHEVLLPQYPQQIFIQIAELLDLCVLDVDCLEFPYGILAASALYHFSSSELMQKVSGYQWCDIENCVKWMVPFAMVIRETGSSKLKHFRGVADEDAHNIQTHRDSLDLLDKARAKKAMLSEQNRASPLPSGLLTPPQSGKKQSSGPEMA
Chain of CDK7 (P50613 whole entry): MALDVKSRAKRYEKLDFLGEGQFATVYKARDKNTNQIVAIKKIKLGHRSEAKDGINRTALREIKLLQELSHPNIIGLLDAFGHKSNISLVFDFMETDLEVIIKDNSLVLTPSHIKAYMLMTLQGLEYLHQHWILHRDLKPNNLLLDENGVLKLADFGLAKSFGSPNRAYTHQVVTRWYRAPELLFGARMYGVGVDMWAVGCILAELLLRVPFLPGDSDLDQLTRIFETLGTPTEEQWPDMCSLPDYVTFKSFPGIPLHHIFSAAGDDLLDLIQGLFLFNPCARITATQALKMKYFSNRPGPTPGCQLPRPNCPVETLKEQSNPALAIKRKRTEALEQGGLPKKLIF

Compound: CC(C)CC(=O)Nc1[nH]nc2c1CN(C(=O)C1CCN(C)CC1)C2(C)C [PHA-793887]
- inhibition at 10 µM (CDK1/Cyclin E1; average of experiments): 71.4%
- inhibition at 10 µM (CDK1/Cyclin E1; independent experiment 1): 72%
- inhibition at 10 µM (CDK1/Cyclin E1; independent experiment 2): 70.8%
- pIC50 (CDK1/Cyclin E1; average (± SEM where n=3)): 6.09
- pIC50 (CDK1/Cyclin E1; independent experiment 1): 6.10
- pIC50 (CDK1/Cyclin E1; independent experiment 2): 6.07
- inhibition at 10 µM (CDK4/Cyclin D1; average of experiments): 83.1%
- inhibition at 10 µM (CDK4/Cyclin D1; independent experiment 1): 82.5%
- inhibition at 10 µM (CDK4/Cyclin D1; independent experiment 2): 83.8%
- pIC50 (CDK4/Cyclin D1; average (± SEM where n=3)): 6.49
- pIC50 (CDK4/Cyclin D1; independent experiment 1): 6.91
- pIC50 (CDK4/Cyclin D1; independent experiment 2): 6.29
- inhibition at 10 µM (CDK5/CDK5R1; average of experiments): 92%
- inhibition at 10 µM (CDK5/CDK5R1; independent experiment 1): 89.9%
- inhibition at 10 µM (CDK5/CDK5R1; independent experiment 2): 94.2%
- pIC50 (CDK5/CDK5R1; average (± SEM where n=3)): 6.44
- pIC50 (CDK5/CDK5R1; independent experiment 1): 6.37
- pIC50 (CDK5/CDK5R1; independent experiment 2): 6.52
- inhibition at 10 µM (CDK6/Cyclin D1; average of experiments): 88.3%
- inhibition at 10 µM (CDK6/Cyclin D1; independent experiment 1): 84.9%
- inhibition at 10 µM (CDK6/Cyclin D1; independent experiment 2): 91.6%
- pIC50 (CDK6/Cyclin D1; average (± SEM where n=3)): 6.37
- pIC50 (CDK6/Cyclin D1; independent experiment 1): 6.43
- pIC50 (CDK6/Cyclin D1; independent experiment 2): 6.32
- inhibition at 10 µM (CDK7; average of experiments): 94.1%
- inhibition at 10 µM (CDK7; independent experiment 1): 95.3%
- inhibition at 10 µM (CDK7; independent experiment 2): 92.8%
- pIC50 (CDK7; average (± SEM where n=3), read-out: CDK7 IC50): 6.62
- pIC50 (CDK7; independent experiment 1, read-out: CDK7 IC50): 6.62
- pIC50 (CDK7; independent experiment 2, read-out: CDK7 IC50): 6.64
- pIC50 (CDK7; live HEK-293, 2 h, mean ± S.E.M. (n=3) or mean (n=2), read-out: IC50 for CDK/cyclin complexes, CDK7): 6.62
- inhibition at 10 µM (CDK8/Cyclin C; average of experiments): 57.2%
- inhibition at 10 µM (CDK8/Cyclin C; independent experiment 1): 65.2%
- inhibition at 10 µM (CDK8/Cyclin C; independent experiment 2): 49.1%
- inhibition at 10 µM (CDK9/Cyclin K; average of experiments): 86%
- inhibition at 10 µM (CDK9/Cyclin K; independent experiment 1): 87.8%
- inhibition at 10 µM (CDK9/Cyclin K; independent experiment 2): 84.1%
- inhibition at 10 µM (CDK11A/Cyclin L2; average of experiments): 50.1%
- inhibition at 10 µM (CDK11A/Cyclin L2; independent experiment 1): 50.7%
- inhibition at 10 µM (CDK11A/Cyclin L2; independent experiment 2): 49.4%
- inhibition at 10 µM (CDK11B/Cyclin L2; average of experiments): 56.3%
- inhibition at 10 µM (CDK11B/Cyclin L2; independent experiment 1): 57.8%
- inhibition at 10 µM (CDK11B/Cyclin L2; independent experiment 2): 54.7%
- inhibition at 10 µM (CDK12/Cyclin K; average of experiments): 31.4%
- inhibition at 10 µM (CDK12/Cyclin K; independent experiment 1): 33%
- inhibition at 10 µM (CDK12/Cyclin K; independent experiment 2): 29.9%
- inhibition at 10 µM (CDK13/Cyclin K; average of experiments): 17.1%
- inhibition at 10 µM (CDK13/Cyclin K; independent experiment 1): 23.7%
- inhibition at 10 µM (CDK13/Cyclin K; independent experiment 2): 10.4%
- inhibition at 10 µM (CDK14/Cyclin Y; average of experiments): 81.4%
- inhibition at 10 µM (CDK14/Cyclin Y; independent experiment 1): 81%
- inhibition at 10 µM (CDK14/Cyclin Y; independent experiment 2): 81.8%
- inhibition at 10 µM (CDK15/Cyclin Y; average of experiments): 72.5%
- inhibition at 10 µM (CDK15/Cyclin Y; independent experiment 1): 72.6%
- inhibition at 10 µM (CDK15/Cyclin Y; independent experiment 2): 72.5%
- inhibition at 10 µM (CDK16/Cyclin Y; independent experiment 1): 84.5%
- inhibition at 10 µM (CDK16/Cyclin Y; independent experiment 2): 87%
- inhibition at 10 µM (CDK17/Cyclin Y; average of experiments): 86.9%
- inhibition at 10 µM (CDK17/Cyclin Y; independent experiment 1): 86.4%
- inhibition at 10 µM (CDK17/Cyclin Y; independent experiment 2): 87.4%
- inhibition at 10 µM (CDK18/Cyclin Y; average of experiments): 91.7%
- inhibition at 10 µM (CDK18/Cyclin Y; independent experiment 1): 86.8%
- inhibition at 10 µM (CDK18/Cyclin Y; independent experiment 2): 96.6%
- inhibition at 10 µM (CDK20/Cyclin H; independent experiment 1): 5.8%
- inhibition at 10 µM (CDK20/Cyclin H; independent experiment 2): 16.7%
- inhibition at 10 µM (CDK19/Cyclin C; average of experiments): 52.6%
- inhibition at 10 µM (CDK19/Cyclin C; independent experiment 1): 63.4%
- inhibition at 10 µM (CDK19/Cyclin C; independent experiment 2): 41.9%
- inhibition at 10 µM (CDK10/Cyclin L2; average of experiments): 30%
- inhibition at 10 µM (CDK10/Cyclin L2; independent experiment 1): 32.9%
- inhibition at 10 µM (CDK10/Cyclin L2; independent experiment 2): 27.2%
